Assay results from patent US20150166523A1, “BRANCHED CHAIN ALKYL HETEROAROMATIC RING DERIVATIVE” (TAISHO PHARMACEUTICAL CO., LTD., priority 2012, published 2015).

Tests used:
[1] = biological target: T1, human orexin-1 receptor (hOX1R) (Homo sapiens, UniProt O43613); experiment: Measurement of orexin antagonistic activity (intracellular Ca2+ fluorescence, FDSS) on hOX1R; format: cell-based; settings: CHO cells forcibly expressing hOX1R; Fluo-4AM; ligand peptide (substituted human orexin-A) 300 pM; compound preincubated 30 minutes; read-out: IC50 Value OX1
T1 construct: expressed in transfected cells; host or cells: Chinese hamster ovary (CHO) cells
T1 sequence (O43613 1-425): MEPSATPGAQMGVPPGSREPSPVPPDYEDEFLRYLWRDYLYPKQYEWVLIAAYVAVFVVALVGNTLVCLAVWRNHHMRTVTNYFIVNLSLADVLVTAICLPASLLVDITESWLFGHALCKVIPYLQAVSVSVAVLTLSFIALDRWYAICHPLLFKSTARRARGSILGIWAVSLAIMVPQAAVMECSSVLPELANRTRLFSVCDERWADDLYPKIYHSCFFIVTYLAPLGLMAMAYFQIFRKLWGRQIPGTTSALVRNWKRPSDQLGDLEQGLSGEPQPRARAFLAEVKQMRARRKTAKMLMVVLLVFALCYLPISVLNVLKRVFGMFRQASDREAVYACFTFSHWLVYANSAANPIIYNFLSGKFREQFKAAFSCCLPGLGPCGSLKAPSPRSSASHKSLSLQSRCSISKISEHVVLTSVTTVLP
Method in brief: (§1)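 CHO cells stably expressing hOX1R or hOX2R, loaded with 0.5 μM Fluo-4AM in HEPES/HBSS buffer with 0.1% BSA and 2.5 mM probenecid, pH 7.4, then preincubated 30 min with compound. Fluorescence recorded each second for 3 min by FDSS; maximum intensity taken as intracellular Ca2+ indicator of antagonism.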

[2] = biological target: T2, orexin-2 receptor (hOX2R) (Homo sapiens, UniProt O43614); experiment: Measurement of orexin antagonistic activity (intracellular Ca2+ fluorescence, FDSS) on hOX2R; format: cell-based; settings: CHO cells forcibly expressing hOX2R; Fluo-4AM; ligand peptide (substituted human orexin-A) 3 nM; compound preincubated 30 minutes; read-out: IC50 Value OX2
T2 construct: expressed in transfected cells; host or cells: Chinese hamster ovary (CHO) cells
T2 sequence (O43614 1-444): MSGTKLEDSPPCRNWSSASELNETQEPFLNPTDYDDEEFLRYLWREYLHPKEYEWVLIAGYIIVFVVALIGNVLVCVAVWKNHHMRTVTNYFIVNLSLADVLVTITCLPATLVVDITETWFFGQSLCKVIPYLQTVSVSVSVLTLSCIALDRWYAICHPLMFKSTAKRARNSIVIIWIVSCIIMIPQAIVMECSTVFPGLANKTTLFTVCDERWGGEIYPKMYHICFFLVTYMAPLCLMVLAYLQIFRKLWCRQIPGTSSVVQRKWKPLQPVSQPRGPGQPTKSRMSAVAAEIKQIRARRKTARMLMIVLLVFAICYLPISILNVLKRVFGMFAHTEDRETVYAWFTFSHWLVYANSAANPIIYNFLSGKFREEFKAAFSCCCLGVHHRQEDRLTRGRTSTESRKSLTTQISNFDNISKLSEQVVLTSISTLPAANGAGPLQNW
Method in brief: as §1

Compound	IC50 [1]	IC50 [2]
CCN(C(=O)c1nc(C)ccc1-c1ncccn1)[C@@H](C)Cn1cc(-c2ccc(F)cn2)nn1 [Example 80, N-Ethyl-N-{(2S)-1-[4-(5-fluoropyridin-2-yl)-1H-1,2,3-triazol-1-yl]propan-2-yl}-6-methyl-3-(pyrimidin-2-yl)pyridine-2-carboxamide]	687 nM	7810 nM
CCN(C(=O)c1cc(F)ccc1-c1ncccn1)[C@@H](C)Cn1cc(-c2ccc(F)cn2)nn1 [Example 81, N-Ethyl-5-fluoro-N-{(2S)-1-[4-(5-fluoropyridin-2-yl)-1H-1,2,3-triazol-1-yl]propan-2-yl}-2-(pyrimidin-2-yl) benzamide]	177 nM	3150 nM
CCN(C(=O)c1cc(C)ccc1-n1nccn1)[C@@H](C)Cn1cc(-c2ccc(F)cn2)nn1 [Example 82, N-Ethyl-N-{(2S)-1-[4-(5-fluoropyridin-2-yl)-1H-1,2,3-triazol-1-yl]propan-2-yl}-5-methyl-2-(2H-1,2,3-triazol-2-yl)benzamide]	2.2 nM	13.3 nM
CCN(C(=O)c1nc(C)ccc1-n1nccn1)[C@@H](C)Cn1cc(-c2ccc(F)cc2)nn1 [Example 83, N-Ethyl-N-{(2S)-1-[4-(4-fluorophenyl)-1H-1,2,3-triazol-1-yl]propan-2-yl}-6-methyl-3-(2H-1,2,3-triazol-2-yl)pyridine-2-carboxamide]	9.9 nM	308 nM
CCN(C(=O)c1cc(F)ccc1-n1nccn1)[C@@H](C)Cn1cc(-c2ccc(F)cc2)nn1 [Example 84, N-Ethyl-5-fluoro-N-{(2S)-1-[4-(4-fluorophenyl)-1H-1,2,3-triazol-1-yl]propan-2-yl}-2-(2H-1,2,3-triazol-2-yl)benzamide]	3.1 nM	51.4 nM
CCN(C(=O)c1cc(C)ccc1-n1nccn1)[C@@H](C)Cn1nnc(-c2ccc(F)cn2)n1 [Example 85, N-Ethyl-N-{(2S)-1-[5-(5-fluoropyridin-2-yl)-2H-tetrazol-2-yl]propan-2-yl}-5-methyl-2-(2H-1,2,3-triazol-2-yl)benzamide]	1.3 nM	27.5 nM
CCN(C(=O)c1nc(C)ccc1-n1nccn1)[C@@H](C)Cn1nnc(-c2ccc(F)cn2)n1 [Example 86, N-Ethyl-N-{(2S)-1-[5-(5-fluoropyridin-2-yl)-2H-tetrazol-2-yl]propan-2-yl}-6-methyl-3-(2H-1,2,3-triazol-2-yl)pyridine-2-carboxamide]	37.7 nM	1030 nM
CCN(C(=O)c1cc(F)ccc1-n1nccn1)[C@@H](C)Cn1nnc(-c2ccc(F)cn2)n1 [Example 87, N-Ethyl-5-fluoro-N-{(2S)-1-[5-(5-fluoropyridin-2-yl)-2H-tetrazol-2-yl]propan-2-yl}-2-(2H-1,2,3-triazol-2-yl)benzamide]	9.8 nM	283 nM
CCN(C(=O)c1cc(C)ccc1-c1ncccn1)[C@@H](C)Cn1nnc(-c2ccc(F)cn2)n1 [Example 88, N-Ethyl-N-{(2S)-1-[5-(5-fluoropyridin-2-yl)-2H-tetrazol-2-yl]propan-2-yl}-5-methyl-2-(pyrimidin-2-yl)benzamide]	13.4 nM	41.2 nM

Other lines, results leading:

IC50 [1]	IC50 [2]	Compound
229 nM	6930 nM	Cc1ccc(-n2nccn2)c(C(=O)N(CCN(C)C)[C@@H](C)Cn2cc(-c3ccc(F)cc3)nn2)c1 [Example 89, N-[2-(Dimethylamino)ethyl]-N-{(2S)-1-[4-(4-fluorophenyl)-1H-1,2,3-triazol-1-yl]propan-2-yl}-5-methyl-2-(2H-1,2,3-triazol-2-yl)benzamide]
23.7 nM	2070 nM	Cc1ccc(-n2nccn2)c(C(=O)N(CCS(C)(=O)=O)[C@@H](C)Cn2cc(-c3ccc(F)cc3)nn2)c1 [Example 90, N-{(2S)-1-[4-(4-Fluorophenyl)-1H-1,2,3-triazol-1-yl]propan-2-yl}-5-methyl-N-[2-(methylsulfonyl)ethyl]-2-(2H-1,2,3-triazol-2-yl)benzamide]
203 nM	279 nM	Cc1ccc(-n2nccn2)c(C(=O)N(CCC#N)[C@@H](C)Cn2cc(-c3ccc(F)cc3)nn2)c1 [Example 91, N-(2-Cyanoethyl)-N-{(2S)-1-[4-(4-fluorophenyl)-1H-1,2,3-triazol-1-yl]propan-2-yl}-5-methyl-2-(2H-1,2,3-triazol-2-yl) benzamide]
2.5 nM	64.6 nM	CCN(C(=O)c1cc(C)ccc1-n1nccn1)[C@@H](C)Cn1cc(-c2ccc(Cl)cc2)nn1 [Example 92, N-{(2S)-1-[4-(4-Chlorophenyl)-1H-1,2,3-triazol-1-yl]propan-2-yl}-N-ethyl-5-methyl-2-(2H-1,2,3-triazol-2-yl)benzamide]
1.4 nM	7.4 nM	CCN(C(=O)c1cc(C)ccc1-n1nccn1)[C@@H](C)Cn1cc(-c2cccc(O)c2)nn1 [Example 93, N-Ethyl-N-{(2S)-1-[4-(3-hydroxyphenyl)-1H-1,2,3-triazol-1-yl]propan-2-yl}-5-methyl-2-(2H-1,2,3-triazol-2-yl)benzamide]
9.3 nM	108 nM	CCN(C(=O)c1cc(C)ccc1-n1nccn1)[C@@H](C)Cn1cc(-c2ccccn2)nn1 [Example 94, N-Ethyl-5-methyl-N-{(2S)-1-[4-(pyridin-2-yl)-1H-1,2,3-triazol-1-yl]propan-2-yl}-2-(2H-1,2,3-triazol-2-yl) benzamide]
0.6 nM	17.7 nM	CCN(C(=O)c1cc(C)ccc1-n1nccn1)[C@@H](C)Cn1cc(-c2ccccc2)nn1 [Example 95, N-Ethyl-5-methyl-N-[(2S)-1-(4-phenyl-1H-1,2,3-triazol-1-yl)propan-2-yl]-2-(2H-1,2,3-triazol-2-yl)benzamide]
160 nM	8370 nM	CCN(C(=O)c1cc(C)ccc1-n1nccn1)[C@@H](C)Cn1cc(-c2ccc(OC)cc2)nn1 [Example 96, N-Ethyl-N-{(2S)-1-[4-(4-methoxyphenyl)-1H-1,2,3-triazol-1-yl]propan-2-yl}-5-methyl-2-(2H-1,2,3-triazol-2-yl)benzamide]
2.4 nM	21.3 nM	CCN(C(=O)c1cc(C)ccc1-n1nccn1)[C@@H](C)Cn1cc(-c2cccc(C)c2)nn1 [Example 97, N-Ethyl-5-methyl-N-{(2S)-1-[4-(3-methylphenyl)-1H-1,2,3-triazol-1-yl]propan-2-yl}-2-(2H-1,2,3-triazol-2-yl) benzamide]
6.3 nM	9.8 nM	CCN(C(=O)c1cc(C)ccc1-n1nccn1)[C@@H](C)Cn1cc(-c2cccc(F)c2)nn1 [Example 98, N-Ethyl-N-{(2S)-1-[4-(3-fluorophenyl)-1H-1,2,3-triazol-1-yl]propan-2-yl}-5-methyl-2-(2H-1,2,3-triazol-2-yl) benzamide]
1.8 nM	1.5 nM	CCN(C(=O)c1cc(C)ccc1-n1nccn1)[C@@H](C)Cn1cc(-c2ccc(F)c(OC)c2)nn1 [Example 99, N-Ethyl-N-{(2S)-1-[4-(4-fluoro-3-methoxyphenyl)-1H-1,2,3-triazol-1-yl]propan-2-yl}-5-methyl-2-(2H-1,2,3-triazol-2-yl)benzamide]
10.4 nM	774 nM	CCN(C(=O)c1cc(C)ccc1-n1nccn1)[C@@H](C)Cn1cc(-c2ccc(O)cc2)nn1 [Example 100, N-Ethyl-N-{(2S)-1-[4-(4-hydroxyphenyl)-1H-1,2,3-triazol-1-yl]propan-2-yl}-5-methyl-2-(2H-1,2,3-triazol-2-yl)benzamide]
0.9 nM	1.5 nM	CCN(C(=O)c1cc(C)ccc1-n1nccn1)[C@@H](C)Cn1cc(-c2cccc(OC)c2)nn1 [Example 101, N-Ethyl-N-{(2S)-1-[4-(3-methoxyphenyl)-1H-1,2,3-triazol-1-yl]propan-2-yl}-5-methyl-2-(2H-1,2,3-triazol-2-yl)benzamide]
1.4 nM	27.9 nM	Cc1ccc(-n2nccn2)c(C(=O)N(CC(C)O)[C@@H](C)Cn2cc(-c3ccc(F)cc3)cn2)c1 (stereo partly drawn) [Example 102, N-{(2S)-1-[4-(4-Fluorophenyl)-1H-pyrazol-1-yl]propan-2-yl}-N-(2-hydroxypropyl)-5-methyl-2-(2H-1,2,3-triazol-2-yl)benzamide]
